{"source": "ChEMBL document CHEMBL4715821", "about": "“Discovery of 4-ethoxy-7H-pyrrolo[2,3-d]pyrimidin-2-amines as potent, selective and orally bioavailable LRRK2 inhibitors” (Bioorg Med Chem Lett, 2018)", "key": {"[1]": {"target": "TRAF2 and NCK-interacting protein kinase (Homo sapiens) (UniProt Q9UKE5)", "assay": "Inhibition of wild-type human partial length TNIK (D4 to K311 residues) expressed in bacterial expression system assessed as residual activity at 1 uM by Kinomescan method relative to control"}, "[2]": {"target": "Homeodomain-interacting protein kinase 3 (Homo sapiens) (UniProt Q9H422)", "assay": "Inhibition of wild-type human partial length HIPK3 (M153 to N562 residues) expressed in mammalian expression system assessed as residual activity at 1 uM by Kinomescan method relative to control"}, "[3]": {"target": "Mitogen-activated protein kinase 7 (Homo sapiens) (UniProt Q13164)", "assay": "Inhibition of wild-type human partial length ERK5 (M1 to A409 residues) expressed in bacterial expression system assessed as residual activity at 1 uM by Kinomescan method relative to control"}, "[4]": {"target": "Dual specificity protein kinase CLK1 (Homo sapiens) (UniProt P49759)", "assay": "Inhibition of wild-type human full length CLK1 (M1 to I484 residues) expressed in bacterial expression system assessed as residual activity at 1 uM by Kinomescan method relative to control"}, "[5]": {"target": "Tyrosine-protein kinase BTK (Homo sapiens) (UniProt Q06187)", "sequence (Q06187 whole entry, the tested form may be a part)": "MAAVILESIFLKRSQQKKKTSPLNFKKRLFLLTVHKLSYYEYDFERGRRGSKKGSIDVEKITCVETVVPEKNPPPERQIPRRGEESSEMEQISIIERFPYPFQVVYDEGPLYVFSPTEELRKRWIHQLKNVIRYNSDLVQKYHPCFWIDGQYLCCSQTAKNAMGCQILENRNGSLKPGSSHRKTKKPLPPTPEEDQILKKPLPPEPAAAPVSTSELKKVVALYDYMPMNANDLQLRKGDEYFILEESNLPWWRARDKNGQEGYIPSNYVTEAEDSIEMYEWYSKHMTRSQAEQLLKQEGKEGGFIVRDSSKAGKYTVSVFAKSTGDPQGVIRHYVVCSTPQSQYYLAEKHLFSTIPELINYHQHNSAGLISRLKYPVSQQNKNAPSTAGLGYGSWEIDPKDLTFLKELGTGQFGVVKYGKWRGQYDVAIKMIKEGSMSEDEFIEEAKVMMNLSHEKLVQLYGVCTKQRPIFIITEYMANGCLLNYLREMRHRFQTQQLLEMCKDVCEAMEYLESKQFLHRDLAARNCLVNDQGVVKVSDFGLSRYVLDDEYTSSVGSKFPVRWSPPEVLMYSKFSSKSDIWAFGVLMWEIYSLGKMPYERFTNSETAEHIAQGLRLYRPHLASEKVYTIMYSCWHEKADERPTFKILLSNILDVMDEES", "assay": "Inhibition of wild-type human full length BTK (M1 to S659 residues) expressed in mammalian expression system assessed as residual activity at 1 uM by Kinomescan method relative to control"}, "[6]": {"target": "Homeodomain-interacting protein kinase 4 (Homo sapiens) (UniProt Q8NE63)", "sequence (Q8NE63 whole entry, the tested form may be a part)": "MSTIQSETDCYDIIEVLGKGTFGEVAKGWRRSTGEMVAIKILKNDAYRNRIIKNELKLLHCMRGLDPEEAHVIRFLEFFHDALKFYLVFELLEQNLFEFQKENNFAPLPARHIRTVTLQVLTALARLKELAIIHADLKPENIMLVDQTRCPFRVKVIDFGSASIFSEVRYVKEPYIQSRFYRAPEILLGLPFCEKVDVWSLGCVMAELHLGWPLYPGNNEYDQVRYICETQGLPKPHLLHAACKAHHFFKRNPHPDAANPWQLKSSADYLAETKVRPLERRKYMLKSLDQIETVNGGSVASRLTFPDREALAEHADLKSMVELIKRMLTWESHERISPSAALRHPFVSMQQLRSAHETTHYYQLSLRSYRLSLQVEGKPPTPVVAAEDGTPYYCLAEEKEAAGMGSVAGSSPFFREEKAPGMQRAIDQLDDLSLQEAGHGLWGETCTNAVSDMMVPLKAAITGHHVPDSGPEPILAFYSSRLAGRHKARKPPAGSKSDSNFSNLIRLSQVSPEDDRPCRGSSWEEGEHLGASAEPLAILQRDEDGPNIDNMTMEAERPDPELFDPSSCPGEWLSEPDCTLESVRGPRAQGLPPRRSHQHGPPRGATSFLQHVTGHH", "assay": "Inhibition of wild-type human partial length HIPK4 (M1 to V384 residues) expressed in bacterial expression system assessed as residual activity at 1 uM by Kinomescan method relative to control"}, "[7]": {"target": "Angiopoietin-1 receptor (Homo sapiens) (UniProt Q02763)", "sequence (Q02763 whole entry, the tested form may be a part)": "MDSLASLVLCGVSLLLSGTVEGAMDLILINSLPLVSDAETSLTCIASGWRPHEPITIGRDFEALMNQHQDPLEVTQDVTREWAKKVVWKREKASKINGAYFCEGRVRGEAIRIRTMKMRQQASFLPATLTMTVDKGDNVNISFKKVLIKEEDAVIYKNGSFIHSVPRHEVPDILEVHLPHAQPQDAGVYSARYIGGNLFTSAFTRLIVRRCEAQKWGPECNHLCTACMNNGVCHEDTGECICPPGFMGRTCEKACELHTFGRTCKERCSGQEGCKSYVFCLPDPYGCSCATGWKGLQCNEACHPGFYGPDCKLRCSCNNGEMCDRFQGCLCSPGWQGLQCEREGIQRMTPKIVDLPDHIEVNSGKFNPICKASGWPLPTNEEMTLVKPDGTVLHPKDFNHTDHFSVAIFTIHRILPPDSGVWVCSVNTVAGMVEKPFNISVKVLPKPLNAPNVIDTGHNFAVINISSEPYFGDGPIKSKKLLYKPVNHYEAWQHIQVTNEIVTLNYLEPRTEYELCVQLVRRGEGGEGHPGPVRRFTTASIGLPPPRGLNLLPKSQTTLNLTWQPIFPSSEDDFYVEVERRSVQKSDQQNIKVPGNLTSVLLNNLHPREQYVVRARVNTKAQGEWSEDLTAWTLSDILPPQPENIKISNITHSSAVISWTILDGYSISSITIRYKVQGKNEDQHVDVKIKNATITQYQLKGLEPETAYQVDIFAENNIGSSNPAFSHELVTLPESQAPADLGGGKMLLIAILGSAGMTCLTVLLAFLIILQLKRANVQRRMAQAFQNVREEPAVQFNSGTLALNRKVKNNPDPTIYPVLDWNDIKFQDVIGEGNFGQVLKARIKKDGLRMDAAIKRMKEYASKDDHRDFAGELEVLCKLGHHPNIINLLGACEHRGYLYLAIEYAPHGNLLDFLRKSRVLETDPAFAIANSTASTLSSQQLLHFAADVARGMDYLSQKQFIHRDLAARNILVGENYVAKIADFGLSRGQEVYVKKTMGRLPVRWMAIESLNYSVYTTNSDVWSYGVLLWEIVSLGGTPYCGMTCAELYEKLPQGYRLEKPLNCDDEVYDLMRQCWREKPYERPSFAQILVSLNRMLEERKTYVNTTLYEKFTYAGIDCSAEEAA", "assay": "Inhibition of wild-type human partial length TIE2 (N804 to T1112 residues) expressed in bacterial expression system assessed as residual activity at 1 uM by Kinomescan method relative to control"}, "[8]": {"target": "Receptor-type tyrosine-protein kinase FLT3 (Homo sapiens) (UniProt P36888)", "assay": "Inhibition of wild-type human partial length FLT3 (V592 to Y969 residues) expressed in bacterial expression system assessed as residual activity at 1 uM by Kinomescan method relative to control"}, "[9]": {"target": "Mitogen-activated protein kinase kinase kinase 12 (Homo sapiens) (UniProt Q12852)", "assay": "Inhibition of wild-type human full length DLK (M1 to P859 residues) expressed in mammalian expression system assessed as residual activity at 1 uM by Kinomescan method relative to control"}, "[10]": {"target": "Solute carrier organic anion transporter family member 1B1 (Homo sapiens, UniProt Q9Y6L6)", "sequence (Q9Y6L6 whole entry)": "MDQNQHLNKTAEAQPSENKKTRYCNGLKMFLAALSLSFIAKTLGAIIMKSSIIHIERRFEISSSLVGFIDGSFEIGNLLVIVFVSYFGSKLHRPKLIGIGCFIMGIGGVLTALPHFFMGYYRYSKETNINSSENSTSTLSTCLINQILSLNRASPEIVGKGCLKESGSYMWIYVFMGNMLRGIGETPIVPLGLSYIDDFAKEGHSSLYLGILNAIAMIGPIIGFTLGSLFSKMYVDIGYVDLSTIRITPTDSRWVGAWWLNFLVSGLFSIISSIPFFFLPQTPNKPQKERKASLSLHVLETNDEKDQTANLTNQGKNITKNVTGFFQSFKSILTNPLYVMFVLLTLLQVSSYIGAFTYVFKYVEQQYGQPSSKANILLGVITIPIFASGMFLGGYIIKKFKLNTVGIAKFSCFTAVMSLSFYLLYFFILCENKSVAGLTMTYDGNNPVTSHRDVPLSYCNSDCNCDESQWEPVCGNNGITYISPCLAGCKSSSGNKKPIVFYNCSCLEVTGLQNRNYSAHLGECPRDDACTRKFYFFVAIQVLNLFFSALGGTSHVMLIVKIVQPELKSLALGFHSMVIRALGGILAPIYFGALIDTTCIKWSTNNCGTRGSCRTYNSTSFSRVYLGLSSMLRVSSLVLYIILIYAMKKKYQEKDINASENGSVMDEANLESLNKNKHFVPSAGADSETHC", "assay": "Inhibition of human OATP1B1"}, "[11]": {"target": "Serine/threonine-protein kinase VRK2 (Homo sapiens) (UniProt Q86Y07)", "assay": "Inhibition of wild-type human partial length VRK2 (M1 to T336 residues) expressed in mammalian expression system assessed as residual activity at 1 uM by Kinomescan method relative to control"}, "[12]": {"target": "Myotonin-protein kinase (Homo sapiens) (UniProt Q09013)", "sequence (Q09013 whole entry, the tested form may be a part)": "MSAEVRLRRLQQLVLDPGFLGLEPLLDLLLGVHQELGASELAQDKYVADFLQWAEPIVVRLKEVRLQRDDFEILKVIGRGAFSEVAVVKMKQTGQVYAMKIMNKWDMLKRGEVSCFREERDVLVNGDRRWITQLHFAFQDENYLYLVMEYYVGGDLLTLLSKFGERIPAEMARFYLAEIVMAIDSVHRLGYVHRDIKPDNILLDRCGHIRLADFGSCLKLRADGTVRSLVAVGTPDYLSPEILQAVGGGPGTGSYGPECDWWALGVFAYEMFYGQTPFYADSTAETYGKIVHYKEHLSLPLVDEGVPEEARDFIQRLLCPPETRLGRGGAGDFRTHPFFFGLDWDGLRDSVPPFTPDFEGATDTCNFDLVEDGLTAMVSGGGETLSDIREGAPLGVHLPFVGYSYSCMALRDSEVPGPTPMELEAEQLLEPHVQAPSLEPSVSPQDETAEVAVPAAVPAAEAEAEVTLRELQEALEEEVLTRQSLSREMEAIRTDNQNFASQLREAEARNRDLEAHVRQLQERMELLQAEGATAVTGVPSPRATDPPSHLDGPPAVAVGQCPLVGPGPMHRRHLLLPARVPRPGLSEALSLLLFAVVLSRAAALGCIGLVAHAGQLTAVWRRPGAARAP", "assay": "Inhibition of wild-type human partial length DMPK (V47 to V415 residues) expressed in bacterial expression system assessed as residual activity at 1 uM by Kinomescan method relative to control"}, "[13]": {"target": "G protein-coupled receptor kinase 4 (Homo sapiens) (UniProt P32298)", "assay": "Inhibition of wild type human full length GRK4 (M1 to C578 residues) expressed in bacterial expression system assessed as residual activity at 1 uM by Kinomescan method relative to control"}, "[14]": {"target": "Dual specificity mitogen-activated protein kinase kinase 3 (Homo sapiens) (UniProt P46734)", "sequence (P46734 whole entry, the tested form may be a part)": "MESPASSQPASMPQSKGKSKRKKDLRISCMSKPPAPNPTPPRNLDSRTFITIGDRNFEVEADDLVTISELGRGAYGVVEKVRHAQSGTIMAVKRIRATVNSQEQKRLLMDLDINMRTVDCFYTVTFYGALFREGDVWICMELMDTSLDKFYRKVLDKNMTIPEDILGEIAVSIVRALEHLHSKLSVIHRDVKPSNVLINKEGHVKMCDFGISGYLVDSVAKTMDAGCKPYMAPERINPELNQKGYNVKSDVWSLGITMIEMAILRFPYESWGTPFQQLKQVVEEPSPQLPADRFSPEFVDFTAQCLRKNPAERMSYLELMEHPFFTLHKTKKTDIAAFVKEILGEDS", "assay": "Inhibition of wild-type human full length MEK3 (M1 to S318 residues) expressed in mammalian expression system assessed as residual activity at 1 uM by Kinomescan method relative to control"}, "[15]": {"target": "STE20-like serine/threonine-protein kinase (Homo sapiens) (UniProt Q9H2G2)", "assay": "Inhibition of wild-type human partial length SLK (S14 to A307 residues) expressed in bacterial expression system assessed as residual activity at 1 uM by Kinomescan method relative to control"}, "[16]": {"target": "Serine/threonine-protein kinase N1 (Homo sapiens) (UniProt Q16512)", "assay": "Inhibition of wild-type human partial length PKN1 (E598 to C948 residues) expressed in bacterial expression system assessed as residual activity at 1 uM by Kinomescan method relative to control"}, "[17]": {"target": "Serine/threonine-protein kinase PLK4 (Homo sapiens) (UniProt O00444)", "assay": "Inhibition of wild-type human partial length PLK4 (M1 to S273 residues) expressed in mammalian expression system assessed as residual activity at 1 uM by Kinomescan method relative to control"}, "[18]": {"target": "Proto-oncogene tyrosine-protein kinase Src (Homo sapiens) (UniProt P12931)", "assay": "Inhibition of wild-type human partial length c-Src (M1 to L450 residues) expressed in bacterial expression system assessed as residual activity at 1 uM by Kinomescan method relative to control"}, "[19]": {"target": "Mitogen-activated protein kinase kinase kinase 11 (Homo sapiens) (UniProt Q16584)", "sequence (Q16584 whole entry, looked up, the tested form may be a part)": "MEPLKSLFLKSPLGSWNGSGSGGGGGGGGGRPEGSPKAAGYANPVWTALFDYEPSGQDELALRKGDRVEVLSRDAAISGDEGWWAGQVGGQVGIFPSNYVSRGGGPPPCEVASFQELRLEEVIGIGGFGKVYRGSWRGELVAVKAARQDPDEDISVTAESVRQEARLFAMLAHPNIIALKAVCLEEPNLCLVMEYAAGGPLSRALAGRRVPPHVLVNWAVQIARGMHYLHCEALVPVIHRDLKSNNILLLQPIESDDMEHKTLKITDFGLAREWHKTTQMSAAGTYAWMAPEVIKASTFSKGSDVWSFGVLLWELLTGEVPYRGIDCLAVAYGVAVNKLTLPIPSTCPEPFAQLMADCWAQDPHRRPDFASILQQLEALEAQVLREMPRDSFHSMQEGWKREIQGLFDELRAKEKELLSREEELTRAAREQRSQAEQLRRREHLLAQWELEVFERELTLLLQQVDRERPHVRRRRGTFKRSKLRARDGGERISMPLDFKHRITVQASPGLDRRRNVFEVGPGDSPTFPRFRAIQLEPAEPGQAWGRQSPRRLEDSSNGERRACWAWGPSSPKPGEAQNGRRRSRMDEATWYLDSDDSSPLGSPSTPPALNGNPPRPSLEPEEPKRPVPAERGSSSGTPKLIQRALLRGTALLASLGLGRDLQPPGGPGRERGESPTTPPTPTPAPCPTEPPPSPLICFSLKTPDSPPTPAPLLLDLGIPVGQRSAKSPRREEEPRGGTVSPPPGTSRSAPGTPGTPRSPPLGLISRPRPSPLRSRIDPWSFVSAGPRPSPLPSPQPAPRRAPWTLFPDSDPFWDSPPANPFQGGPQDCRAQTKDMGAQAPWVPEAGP", "assay": "Inhibition of wild-type human partial length MLK3 (I77 to W399 residues) expressed in bacterial expression system assessed as residual activity at 1 uM by Kinomescan method relative to control"}, "[20]": {"target": "Ephrin type-A receptor 2 (Homo sapiens) (UniProt P29317)", "assay": "Inhibition of wild type human partial length EPHA2 (T593 to V891 residues) expressed in bacterial expression system assessed as residual activity at 1 uM by Kinomescan method relative to control"}, "[21]": {"target": "Tyrosine-protein kinase Blk (Homo sapiens) (UniProt P51451)", "assay": "Inhibition of wild-type human partial length BLK (G211 to L503 residues) expressed in bacterial expression system assessed as residual activity at 1 uM by Kinomescan method relative to control"}, "[22]": {"target": "Myosin light chain kinase (Homo sapiens) (UniProt Q32MK0)", "assay": "Inhibition of MYLK3 (unknown origin) assessed as residual activity at 1 uM by Kinomescan method relative to control"}, "[23]": {"target": "Ephrin type-B receptor 2 (Homo sapiens) (UniProt P29323)", "assay": "Inhibition of wild-type human partial length EPHB2 (I597 to L902 residues) expressed in bacterial expression system assessed as residual activity at 1 uM by Kinomescan method relative to control"}, "[24]": {"target": "Ephrin type-A receptor 7 (Homo sapiens) (UniProt Q15375)", "assay": "Inhibition of wild-type human partial length EPHA7 (Y608 to S912 residues) expressed in bacterial expression system assessed as residual activity at 1 uM by Kinomescan method relative to control"}, "[25]": {"target": "Mitogen-activated protein kinase 1 (Homo sapiens) (UniProt P28482)", "assay": "Inhibition of wild-type human full length ERK2 (M1 to S360 residues) expressed in bacterial expression system assessed as residual activity at 1 uM by Kinomescan method relative to control"}, "[26]": {"target": "Serine/threonine-protein kinase PAK 5 (Homo sapiens) (UniProt Q9P286)", "assay": "Inhibition of PAK5 (unknown origin) assessed as residual activity at 1 uM by Kinomescan method relative to control"}}, "data": [{"smiles": "CCOc1nc(Nc2ccc(C(=O)N3CCOCC3)cc2OC)nc2[nH]ccc12", "values": [{"measurement": "Activity", "setting": "[1]", "value": 98.4, "unit": "%"}, {"measurement": "Activity", "setting": "[2]", "value": 98, "unit": "%"}, {"measurement": "Activity", "setting": "[3]", "value": 99.1, "unit": "%"}, {"measurement": "Activity", "setting": "[4]", "value": 37.4, "unit": "%"}, {"measurement": "Activity", "setting": "[5]", "value": 101, "unit": "%"}, {"measurement": "Activity", "setting": "[6]", "value": 101, "unit": "%"}, {"measurement": "Activity", "setting": "[7]", "value": 108, "unit": "%"}, {"measurement": "Activity", "setting": "[8]", "value": 92.6, "unit": "%"}, {"measurement": "Activity", "setting": "[9]", "value": 93.9, "unit": "%"}, {"measurement": "IC50", "setting": "[10]", "value": 12.6, "unit": "µM"}, {"measurement": "Activity", "setting": "[11]", "value": 102, "unit": "%"}, {"measurement": "Activity", "setting": "[12]", "value": 103, "unit": "%"}, {"measurement": "Activity", "setting": "[13]", "value": 84.6, "unit": "%"}, {"measurement": "Activity", "setting": "[14]", "value": 134, "unit": "%"}, {"measurement": "Activity", "setting": "[15]", "value": 109, "unit": "%"}, {"measurement": "Activity", "setting": "[16]", "value": 94.8, "unit": "%"}, {"measurement": "Activity", "setting": "[17]", "value": 58.8, "unit": "%"}, {"measurement": "Activity", "setting": "[18]", "value": 99, "unit": "%"}, {"measurement": "Activity", "setting": "[19]", "value": 101, "unit": "%"}, {"measurement": "Activity", "setting": "[20]", "value": 106, "unit": "%"}, {"measurement": "Activity", "setting": "[21]", "value": 114, "unit": "%"}, {"measurement": "Activity", "setting": "[22]", "value": 96.9, "unit": "%"}, {"measurement": "Activity", "setting": "[23]", "value": 95.3, "unit": "%"}, {"measurement": "Activity", "setting": "[24]", "value": 97.8, "unit": "%"}, {"measurement": "Activity", "setting": "[25]", "value": 93.5, "unit": "%"}, {"measurement": "Activity", "setting": "[26]", "value": 105, "unit": "%"}]}]}
